# Measured values from PMC5863483, “Low HLA binding of diabetes-associated CD8+ T-cell epitopes is increased by post translational modifications” (BMC Immunology, 2018).
# Read-outs that look alike come from different tables or passages of the source. Where no end group is shown, it is not given here.
# Experiments:
# HLA-B*07:02 = HLA-B*07:02 (Homo sapiens, UniProt P01889); assay: HLA-peptide competition binding assay, B*07:02; details: read-out: IC50 nM, target assay B*07:02
# HLA-A*02:01 = HLA-A*02:01 (Homo sapiens, UniProt P04439, D140Y/D185E/D98H/E176V/E277Q/G131W/G231S/I119V/I121R/I166T/I218V/L300P/L318F/N151K/N90K/P208A/P217A/Q86G/Q94H/R138H/R169H/T345S); assay: HLA-peptide competition binding assay, A*02:01
# HLA-A*24:02 = HLA-A*24:02 (Homo sapiens, UniProt P04439, D101N/D140Y/D185E/E176V/E190D/F33S/G103R/G107R/I119L/I121M/I306V/K335N/L105A/L180Q/L300P/N151K/N90K/Q86E/Q94H/R106L/R138H/R89G/T104I/T345S/V100E/W191G/Y123F); assay: HLA-peptide competition binding assay, A*24:02; details: read-out: IC50 nM, target assay A*24:02
# HLA-A*01:01 = HLA-A*01:01 (Homo sapiens, UniProt P04439, A114D/A174V/A182V/D101N/D185E/E176A/E190D/L180R/Q94H/R68K/S129P/T187R/V100A/V91M/W191G); assay: HLA-peptide competition binding assay, A*01:01; details: read-out: IC50 nM, target assay A*01:01
# HLA-B*08:01 = HLA-B*08:01 (Homo sapiens, UniProt P01889, A93T/A95T/D138N/E176V/E187T/K202T/Q94N/R180D/S35A/V36M/Y33D/Y91F); assay: biochemical
# Method: The 138 peptides were tested for their capacity to bind their respective HLA class I restricting allele(s) in classical competition assays based on the inhibition of the binding of high affinity radiolabeled ligands to purified major histocompatibility (MHC) molecules, as described in the Methods. In instances where the precise restriction was not available, binding to the most common representative subtype from the same allele family was assayed (e.g., A*02:01 for A02; B*07:02 for B7; A*03:01 for A03, etc.). For epitopes reported to be restricted by multiple alleles, each restriction is shown separately.
# Peptide-MHC affinities were measured using classical competition assays based on the inhibition of binding of a high affinity radiolabeled ligand to purified HLA class I molecules, as previously described. Briefly, 0.1–1 nM of radiolabeled peptide is co-incubated at room temperature with purified MHC in the presence of a cocktail of protease inhibitors. Following a two-day incubation, MHC bound radioactivity is determined by capturing MHC/peptide complexes on W6/32 (anti-HLA class I) mAb coated Lumitrac 600 plates (Greiner Bio-one, Frickenhausen, Germany), and bound cpm measured using the TopCount (Packard Instrument Co., Meriden, CT) microscintillation counter. […] Under the conditions utilized, where [label] < [MHC] and IC50 ≥ [MHC], measured IC50 values are reasonable approximations of true Kd. Each competitor peptide is tested at six different concentrations covering a 100,000-fold range, and in three or more independent experiments. As a positive control, the unlabeled version of the radiolabeled probe is also tested in each experiment.
# HLA-A*03:01 = HLA-A*03:01 (Homo sapiens, UniProt P04439); assay: HLA-peptide competition binding assay, A*03:01
# HLA-A*11:01 = HLA-A*11:01 (Homo sapiens, UniProt P04439, A114D/D185E/E176A/F33Y/L180Q/S129P/T187R); assay: HLA-peptide competition binding assay, A*11:01; details: read-out: IC50 nM, target assay A*11:01
# HLA-B*35:01 = HLA-B*35:01 (Homo sapiens, UniProt P01889, A329T/A93T/A95T/C349S/D201E/D98Y/E176V/E187L/E204Q/E69T/I218V/K202T/L119I/Q94N/R155S/R180L/S121R/S35A/S48A/T118I/V127L/V306I/V36M/Y140S/Y91F); assay: HLA-peptide competition binding assay, B*35:01; details: read-out: IC50 nM, target assay B*35:01
# HLA-B*51:01 = HLA-B*51:01 (Homo sapiens, UniProt P01889, A329T/A93T/A95T/C349S/D138N/D201E/D98Y/E187L/E204Q/E69T/G107R/I218V/K202T/L105A/L119W/N104I/Q94N/R106L/R155S/R180L/S101N/S121T/S35A/S48A/V306I/V36M/Y195H/Y91F); assay: HLA-peptide competition binding assay, B*51:01; details: read-out: IC50 nM, target assay B*51:01
# HLA-B*18:01 = HLA-B*18:01 (Homo sapiens, UniProt P01889, A329T/A93T/A95T/C349S/D201E/D54G/D98Y/E176V/E187T/E204Q/E69T/K202T/Q94N/R155S/R180L/S121R/V306I/Y140S/Y195H/Y33H/Y91S); assay: HLA-peptide competition binding assay, B*18:01; details: read-out: IC50 nM, target assay B*18:01
# [1] = read-out: A*02:01 binding (IC50 nM) WT
# [2] = read-out: IC50 nM, target assay A*02:01
# [3] = unmodified (WT) insulin peptide, competition binding assay, a dash indicates IC50 >40,000 nM, read-out: A*02:01 binding (IC50 nM) WT
# [4] = read-out: IC50 nM, target assay A*03:01
# [5] = read-out: A*02:01 binding (IC50 nM) Modified
compound,measurement,setting,value
CC(C)C[C@H](NC(=O)[C@H](CCC(N)=O)NC(=O)[C@H](CC(N)=O)NC(=O)[C@H](Cc1ccccc1)NC(=O)[C@H](Cc1ccc(O)cc1)NC(=O)[C@H](CCCNC(=N)N)NC(=O)[C@@H]1CCCN1C(=O)[C@@H](N)Cc1c[nH]cn1)C(=O)N[C@@H](CO)C(=O)N[C@H](C(=O)O)[C@@H](C)O,IC50,HLA-B*07:02,1250 nM
CC(C)C[C@H](NC(=O)[C@H](Cc1ccc(O)cc1)NC(=O)[C@@H](N)CC(C)C)C(=O)N[C@H](C(=O)N[C@@H](CS)C(=O)NCC(=O)N[C@@H](CCC(=O)O)C(=O)N[C@@H](CCCNC(=N)N)C(=O)NCC(=O)N[C@@H](Cc1ccccc1)C(=O)O)C(C)C [reference compound],IC50,HLA-A*02:01; [1],13400 nM
same,IC50,HLA-A*24:02,5250 nM
ALWGPDPAAAF,IC50,HLA-A*01:01,> 40000 nM
same,IC50,HLA-A*24:02,15100 nM
ALWMRLLPL [reference compound],IC50,HLA-A*02:01; [2],218 nM
same,IC50,HLA-B*08:01,0.107 µM
ALWMRLLPLL,IC50,HLA-A*02:01; [2],190 nM
same,IC50,HLA-A*24:02,6180 nM
same,IC50,HLA-B*08:01,0.033 µM
ALYLVCGER,IC50,HLA-A*02:01,1790 nM
same,IC50,HLA-A*03:01,2790 nM
same,IC50,HLA-A*11:01,28300 nM
APVIKARMM,IC50,HLA-B*07:02,18200 nM
ERGFFYTPK [reference compound],IC50,HLA-A*02:01; [3],> 40000 nM
same,IC50,HLA-A*03:01; [4],> 40000 nM
FYTPKTRRE [reference compound],IC50,HLA-A*02:01; [3],> 40000 nM
same,IC50,HLA-B*08:01,13 µM
GERGFFYT,IC50,HLA-A*01:01,> 40000 nM
same,IC50,HLA-B*08:01,1.38 µM
GSHLVEALY [reference compound],IC50,HLA-A*01:01,30300 nM
same,IC50,HLA-A*02:01; [1],3960 nM
IPSDLERRIL,IC50,HLA-B*07:02,3860 nM
LPLLALLAL [LPLLALLAL],IC50,HLA-B*07:02,610 nM
same,IC50,HLA-B*35:01,12300 nM
same,IC50,HLA-B*51:01,1160 nM
LVCGERGFFY,IC50,HLA-A*01:01,> 40000 nM
same,IC50,HLA-A*02:01; [1],23200 nM
same,IC50,HLA-A*03:01; [4],27400 nM
same,IC50,HLA-A*11:01,27200 nM
LWMRLLPLL [reference compound],IC50,HLA-A*02:01; [1],266 nM
same,IC50,HLA-A*24:02,545 nM
MFPEVKEKG,IC50,HLA-A*11:01,> 40000 nM
PLALEGSLQK,IC50,HLA-A*03:01,> 40000 nM
PLLALLALWG,IC50,HLA-A*03:01; [4],> 40000 nM
RFKMFPEVK,IC50,HLA-A*11:01,18300 nM
RLLPLLALL [reference compound],IC50,HLA-A*02:01; [2],145 nM
same,IC50,HLA-A*24:02,10200 nM
SASVQRADTSL,IC50,HLA-B*07:02,11 nM
SLQPLALEG [reference compound],IC50,HLA-A*02:01; [2],> 40000 nM
same,IC50,HLA-A*03:01; [4],> 40000 nM
TSEHSHFSL,IC50,HLA-B*35:01,> 40000 nM
VCGERGFFYT,IC50,HLA-A*01:01,> 40000 nM
same,IC50,HLA-A*02:01; [2],> 40000 nM
same,IC50,HLA-A*02:01; [3],> 40000 nM
same,IC50,HLA-B*08:01,> 40 µM
same,IC50,HLA-B*18:01,626 nM
"WLLPLWAAL [WLLPLWAAL, reference compound]",IC50,HLA-A*02:01; [2],4.2 nM
WLLPLWAALPL [reference compound],IC50,HLA-A*02:01; [2],3.2 nM
WMRLLPLLA,IC50,HLA-A*02:01,1530 nM
"WMRLLPLLAL [WMRLLPLLAL, reference compound]",IC50,HLA-A*02:01,654 nM
same,IC50,HLA-B*07:02,2360 nM
YIPSCTVVGM [reference compound],IC50,HLA-A*02:01; [2],9510 nM
YLLLRVLNI [reference compound],IC50,HLA-A*02:01; [2],57 nM
YLVCGERGF,IC50,"HLA-A*02:01; unmodified (wild type) insulin-derived peptide, radiolabeled ligand competition, purified MHC, two-day incubation, three or more independent experiments, read-out: A*02:01 binding, WT",6740 nM
YLVCGERGFF,IC50,HLA-A*02:01; [1],1400 nM
YLVCGERGY,IC50,HLA-A*02:01; [5],10800 nM
YLVCGERGYF,IC50,HLA-A*02:01; [5],2010 nM
YTPKTRREA,IC50,HLA-A*02:01; [3],> 40000 nM
YTPKTRREAE,IC50,HLA-A*02:01; [3],> 40000 nM
